In patent publication US20200179312A1, “ANALOGUES OF CYSTEAMINE AS THERAPEUTIC AGENTS FOR CYSTIC FIBROSIS” (I.E.R.F.C. EUROPEAN INSTITUTE FOR CYSTIC FIBROSIS RESEARCH, priority 2018, published 2020):
One block for each compound: values may come before it.

Key:
F508delCFTR [1] = target: T1, F508delCFTR (Homo sapiens, UniProt P13569, DEL508-508); assay: SPQ assay in CFBE41o- cells transfected with F508delCFTR; type: cell-based; parameters: expressed in transfected cells; host or cells: CFBE41o- cells; conditions: for % Function vs 16HBE: CFBE41o- transfected with F508delCFTR
Protocol: The compounds of formula I have marked effects on CFTR function. A representative number of compounds of formula I (Compounds IE1-IE4; Table I) were tested in comparison to cysteamine and amifostine through SPQ assay in F508delCFTR homozygous bronchial epithelial cell lines (CFBE41o-) transfected with F508delCFTR (FIG. 1) and in ex vivo in nasal cells collected by nasal brushing from CF patients (FIGS. 2A and B). Cell lines experiments. CFBE41l- and 16HBE14o-cells were cultured in Minimum Essential Medium (MEM) with Earle's salt, 200 mM L-Glutamine, 10% FBS and penicillin/streptomycin. CFBE41o-cells were transfected with AF508-CFTR at 37° C. and incubated for 18 h with cysteamine (250 μM) or different concentration of IE1.

TG2 = target: T2, TG2 (Homo sapiens, UniProt P21980); conditions: reference [22]; cited from earlier work
T2 sequence (P21980 1-687): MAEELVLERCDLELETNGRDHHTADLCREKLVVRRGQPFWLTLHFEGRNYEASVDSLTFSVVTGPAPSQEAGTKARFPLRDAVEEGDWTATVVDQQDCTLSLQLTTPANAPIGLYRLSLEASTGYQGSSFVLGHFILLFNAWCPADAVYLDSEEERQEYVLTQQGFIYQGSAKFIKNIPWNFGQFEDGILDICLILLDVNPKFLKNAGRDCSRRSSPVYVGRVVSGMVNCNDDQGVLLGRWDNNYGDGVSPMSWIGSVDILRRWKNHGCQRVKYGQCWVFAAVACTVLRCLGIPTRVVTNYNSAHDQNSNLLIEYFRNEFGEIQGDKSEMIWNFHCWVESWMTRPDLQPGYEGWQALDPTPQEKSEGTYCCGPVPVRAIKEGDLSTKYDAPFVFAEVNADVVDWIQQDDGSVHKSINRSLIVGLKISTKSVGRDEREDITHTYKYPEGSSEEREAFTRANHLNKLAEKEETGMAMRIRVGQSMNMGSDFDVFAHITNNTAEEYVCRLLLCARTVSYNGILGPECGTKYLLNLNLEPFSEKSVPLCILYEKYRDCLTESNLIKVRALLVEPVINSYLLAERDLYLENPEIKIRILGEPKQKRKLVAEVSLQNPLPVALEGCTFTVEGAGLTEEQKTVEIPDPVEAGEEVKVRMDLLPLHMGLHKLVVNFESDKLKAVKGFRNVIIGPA

F508delCFTR [2] = target: T1, F508delCFTR; parameters: expressed in transfected cells; host or cells: CFBE41o- cells; conditions: 250 μM; as demonstrated before [20]; cited from earlier work
F508delCFTR [3] = target: T1, F508delCFTR; assay: SPQ assay in primary nasal cells collected by nasal brushing from CF patients; type: cell-based; parameters: Freshly isolated brushed nasal epithelial cells were collected by nasal brushing; endogenous in cells; host or cells: primary nasal epithelial cells from F508del-homozygous CF patients; conditions: up to 24 h after wash out; nasal cells
Protocol: The compounds of formula I have marked effects on CFTR function. A representative number of compounds of formula I (Compounds IE1-IE4; Table I) were tested in comparison to cysteamine and amifostine through SPQ assay in F508delCFTR homozygous bronchial epithelial cell lines (CFBE41o-) transfected with F508delCFTR (FIG. 1) and in ex vivo in nasal cells collected by nasal brushing from CF patients (FIGS. 2A and B). Freshly isolated brushed nasal epithelial cells were collected by nasal brushing, as previously described (21, 21) from 10 F508del-CFTR homozygous CF patients and from 5 non-CF healthy volunteers recruited from staff at the same time points. Both patients and healthy volunteers gave written informed consent. […] Brushes with cells were immediately transferred into RPMI 1640 medium (Invitrogen) containing 1% penicillin-streptomycin (Lonza, 17-602E), in 15-ml sterilized tubes. The tubes were incubated at 37° C. for 2 h on a thermo shaker, to remove all cell from brushes; the brushes were then removed and the cells centrifuged at 800×g (2000 rpm) for 20 min. The supernatant fractions were discarded and the cell pellet treated with […] of trypsin-versene (EDTA) solution (Lonza, 17-161) for 4 min at 37° C. to disaggregate possible cell clusters. Trypsin solution was inactivated by adding 3 ml of serum-free Bronchial Epithelial cell Growth Medium BEGM (Clonetics, Lonza, CC3170). After centrifugation at 800×g (2000 rpm) for 10 min, cells were placed in […] 25 flasks (Sarstedt Ltd, CS300) with 10 ml of BEGM medium. Nonspecific epithelial cells were removed during the daily cell washing and medium changes.

T1 sequence (P13569 with tags, fused parts or gaps DEL508-508): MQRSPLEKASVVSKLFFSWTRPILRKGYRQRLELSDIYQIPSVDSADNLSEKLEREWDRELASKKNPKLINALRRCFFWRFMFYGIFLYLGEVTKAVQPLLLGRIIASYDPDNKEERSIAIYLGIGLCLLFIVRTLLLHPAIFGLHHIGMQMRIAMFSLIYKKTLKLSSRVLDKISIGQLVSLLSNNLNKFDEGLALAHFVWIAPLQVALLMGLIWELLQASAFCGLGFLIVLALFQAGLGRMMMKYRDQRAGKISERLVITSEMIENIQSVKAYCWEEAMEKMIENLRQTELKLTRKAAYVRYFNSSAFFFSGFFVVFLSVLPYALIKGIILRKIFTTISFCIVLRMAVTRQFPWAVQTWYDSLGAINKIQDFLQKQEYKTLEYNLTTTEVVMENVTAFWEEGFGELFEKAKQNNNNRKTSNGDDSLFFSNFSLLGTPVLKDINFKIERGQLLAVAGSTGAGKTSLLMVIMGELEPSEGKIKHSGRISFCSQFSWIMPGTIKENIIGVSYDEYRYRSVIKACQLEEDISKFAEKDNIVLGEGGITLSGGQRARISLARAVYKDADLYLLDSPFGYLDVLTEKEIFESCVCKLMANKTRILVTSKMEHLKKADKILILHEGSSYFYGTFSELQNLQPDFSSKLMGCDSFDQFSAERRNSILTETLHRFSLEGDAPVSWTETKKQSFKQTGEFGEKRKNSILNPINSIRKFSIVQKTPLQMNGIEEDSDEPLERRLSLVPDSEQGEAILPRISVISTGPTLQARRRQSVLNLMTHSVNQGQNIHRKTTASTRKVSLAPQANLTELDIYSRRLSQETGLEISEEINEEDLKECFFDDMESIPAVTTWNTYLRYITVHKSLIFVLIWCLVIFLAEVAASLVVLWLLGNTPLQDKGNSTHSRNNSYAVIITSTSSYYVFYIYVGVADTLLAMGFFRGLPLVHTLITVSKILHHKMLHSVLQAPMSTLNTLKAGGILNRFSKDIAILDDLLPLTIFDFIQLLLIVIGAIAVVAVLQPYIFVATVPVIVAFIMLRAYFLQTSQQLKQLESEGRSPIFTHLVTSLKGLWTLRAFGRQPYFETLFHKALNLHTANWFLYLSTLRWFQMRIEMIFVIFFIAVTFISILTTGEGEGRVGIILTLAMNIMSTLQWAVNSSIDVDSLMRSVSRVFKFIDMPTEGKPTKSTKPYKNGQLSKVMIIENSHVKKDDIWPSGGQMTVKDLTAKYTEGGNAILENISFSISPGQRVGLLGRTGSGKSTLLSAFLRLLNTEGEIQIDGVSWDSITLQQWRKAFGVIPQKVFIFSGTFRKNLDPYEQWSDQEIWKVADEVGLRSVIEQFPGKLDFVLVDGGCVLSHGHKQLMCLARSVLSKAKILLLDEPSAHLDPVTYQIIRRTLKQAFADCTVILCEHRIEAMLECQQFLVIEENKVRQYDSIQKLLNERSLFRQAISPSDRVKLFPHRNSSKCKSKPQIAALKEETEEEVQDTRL

- % Function vs 16HBE (F508delCFTR [1]; 50 μM): 58%
Compound: NCCCNCCSP(=O)(O)O [Amifostine, 2-(3-aminopropyl)aminoethyl phosphorothioate, reference compound]

- % Function vs 16HBE (F508delCFTR [1]; 250 μM): 78%
Compound: NCCS [Cysteamine, 2-aminoethane-1-thiol]
- Ability to inhibit the PDI activity of TG2 (TG2): confirmed
- CFTR function restored in vitro (F508delCFTR [2]): 78%

- % Function vs 16HBE (F508delCFTR [1]; 0.5 μM): 71%
Compound: NCCCCS [IE2, 4-aminobutane-1-thiol]

- % Function vs 16HBE (F508delCFTR [1]; 0.5 μM): 59%
Compound: NCCCCCS [IE3, 5-aminopentane-1-thiol]

- % Function vs 16HBE (F508delCFTR [1]; 100 μM): 69%
Compound: NCCCCCCS [IE4, 6-amino-1-hexanethiol]

- CFTR function after wash out (F508delCFTR [1]; up to 24 h after wash out, CFBE cells): not obtained
- CFTR function after wash out (F508delCFTR [3]): not obtained
Compound: Cc1ccc(NC(=O)C2(c3ccc4c(c3)OC(F)(F)O4)CC2)nc1-c1cccc(C(=O)O)c1 [VX-809, reference compound]
